Measurements published in the NIST ThermoML archive (doi:10.1016/j.jct.2009.11.012).

Assays:
[1] = molar enthalpy of transition or fusion; details: 298.15 K; Crystal 2; DSC
[2] = molar heat capacity at constant pressure; details: 101.33 kPa, Small sample (50 mg) DSC
[3] = DTA
[4] = Molar enthalpy of transition or fusion; details: Crystal 2; DSC

O=C(Nc1ccc(Cl)cc1)Nc1ccc(Cl)c(Cl)c1 [N-(4-chlorophenyl)-N'-(3,4-dichlorophenyl)urea]
Details | Molar enthalpy of transition or fusion [kcal/mol] | molar enthalpy of transition or fusion [kcal/mol]
[1] | – | 43.5
[4] | 1.46 | –

[2]
Details | molar heat capacity at constant pressure [J/K/mol]
263.15 K, Crystal 2 | 268.71
265.15 K, Crystal 2 | 269.88
270.15 K, Crystal 2 | 272.35
275.15 K, Crystal 2 | 274.29
280.15 K, Crystal 2 | 276.34
285.15 K, Crystal 2 | 278.5
290.15 K, Crystal 2 | 280.82
295.15 K, Crystal 2 | 282.87
298.15 K, Crystal 2 | 284.13
300.15 K, Crystal 2 | 285.18
305.15 K, Crystal 2 | 287.71
310.15 K, Crystal 2 | 290.49
315.15 K, Crystal 2 | 290.67
320.15 K, Crystal 2 | 294.23
325.15 K, Crystal 2 | 294.87
330.15 K, Crystal 2 | 297.95
335.15 K, Crystal 2 | 299.93
340.15 K, Crystal 2 | 302.05
345.15 K, Crystal 2 | 304.25
350.15 K, Crystal 2 | 307.35
355.15 K, Crystal 2 | 310.57
360.15 K, Crystal 2 | 313.61
365.15 K, Crystal 2 | 316.56
370.15 K, Crystal 2 | 318.53
375.15 K, Crystal 2 | 320.86
380.15 K, Crystal 2 | 322.77
385.15 K, Crystal 2 | 325.84
390.15 K, Crystal 2 | 328.48
395.15 K, Crystal 2 | 330.98
400.15 K, Crystal 2 | 333.62
405.15 K, Crystal 2 | 335.55
410.15 K, Crystal 2 | 339.3
475.15 K, Crystal 1 | 432.35
480.15 K, Crystal 1 | 436.61
485.15 K, Crystal 1 | 444.02
490.15 K, Crystal 1 | 452.78
495.15 K, Crystal 1 | 464.93

[3]
Details | Normal melting temperature [°C] | Triple point temperature [K]
Crystal 1 | 254.4 | –
Crystal 2 | – | 428
